Results published in PubChem BioAssay (NCI).
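Cultured in 96-well plates, cells were exposed to test compound for 48 hours across five concentrations. Definition used: TGI = concentration required for complete inhibition of growth.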

tested on: MDA-MB-435; experiment: NCI anticancer screen, dose series, 48 h

Row | SMILES | TGI [µM]
1 | COC1(c2ccc(Cl)cc2)SC=C(C)n2c1noc2=O (stereo not given) | > 100
2 | N=C(N)c1ccc(/C=C/c2ccc(C(=N)N)cc2)cc1 | > 100
3 | NC1CC(=O)c2cscc21 (stereo not given) | 64.2
4 | CC(=O)Oc1c(C)c2c(c3ncccc13)OC(C)C2 (stereo not given) | 19
5 | COc1c2c(cc3c1C(=O)c1c(O)cccc1C3=O)CC(O)CC2 (stereo not given) | > 100

tested on: MDA-N; experiment: NCI anticancer screen, dose series, 48 h

Row | SMILES | TGI [µM]
6 | Cc1ccc(N=N/C(=N/NC(=O)c2cc(Cl)ccc2O)c2ccc(N(CCC#N)CCC#N)cc2C)cc1 | > 100
7 | Cc1ccc2c(c1)[nH]c(=S)n2C=C(C(N)=O)C(N)=O | > 100
8 | O=C1C=Cc2c(Br)sc(Br)c21 | > 100
9 | CN(C)CCNc1ccc([N+](=O)[O-])c2sc3ccccc3c(=O)c12 | 21.6
10 | CN1Cc2ccccc2S(=O)(=O)n2cccc2C1=O | > 100
11 | O=C(C1OC1c1ccc(Cl)cc1)C12CC3CC(CC(C3)C1)C2 (stereo not given) | 36.6
12 | NC1c2c(Br)sc(N3CCCC3)c2C(=O)C1O (stereo not given) | > 50
13 | COc1cccc(-c2nc3ccccc3c(=O)[nH]2)c1 | 36.9
14 | Cc1ccc(Cc2n[nH]c(=O)[nH]2)cc1 | > 100
15 | C/C=C/C(C#N)(/C=C/c1ccccc1)OP1(=O)OC(c2ccccc2)C(C)N1C (stereo not given) | 39
16 | S=C(N1CCN(c2ccc(Cl)c(Cl)c2)CC1)N1CCN(c2ccc(Cl)c(Cl)c2)CC1 | 23.8
17 | CCOC(=O)c1c(SC(=O)c2ccc(C(C)(C)C)cc2)n(-c2ccccc2)c(=S)n(-c2ccccc2)c1=O | > 100
18 | CC1OC(OC2C(O[C@H]3CC[C@@H]4C(=CC[C@@H]5[C@@]4(C)C(=O)C[C@]4(C)[C@@H]([C@H](C)CC[C@@H](O)C(C)(C)O)CC[C@@]54C)C3(C)C)OC(CO)C(O)C2O)C(O)C(O)C1O (stereo not given in full) | > 100
19 | Cc1ccc(-c2n[nH]c(Cc3nc(-c4ccc(C)cc4)n[nH]3)n2)cc1 | > 100
20 | Cc1nnc2n1N=C(c1ccccc1)/C(=C/c1ccc(-c3ccc(Cl)cc3)o1)S2 | 34
21 | COC1(c2ccc(Cl)cc2)SC=C(C)n2c1noc2=O (stereo not given) | > 100
22 | N=C(N)c1ccc(/C=C/c2ccc(C(=N)N)cc2)cc1 | > 100
23 | NC1CC(=O)c2cscc21 (stereo not given) | > 100
24 | CC(=O)Oc1c(C)c2c(c3ncccc13)OC(C)C2 (stereo not given) | 32.3
25 | COc1c2c(cc3c1C(=O)c1c(O)cccc1C3=O)CC(O)CC2 (stereo not given) | > 100

tested on: EKVX NSCLC; experiment: NCI anticancer screen, dose series, 48 h

Row | SMILES | TGI [µM]
26 | Cc1ccc(N=N/C(=N/NC(=O)c2cc(Cl)ccc2O)c2ccc(N(CCC#N)CCC#N)cc2C)cc1 | > 100
27 | Cc1ccc2c(c1)[nH]c(=S)n2C=C(C(N)=O)C(N)=O | > 100
28 | O=C1C=Cc2c(Br)sc(Br)c21 | 81
29 | CN(C)CCNc1ccc([N+](=O)[O-])c2sc3ccccc3c(=O)c12 | 25.2
30 | CN1Cc2ccccc2S(=O)(=O)n2cccc2C1=O | > 100
31 | O=C(C1OC1c1ccc(Cl)cc1)C12CC3CC(CC(C3)C1)C2 (stereo not given) | 56.3
32 | NC1c2c(Br)sc(N3CCCC3)c2C(=O)C1O (stereo not given) | > 50
33 | COc1cccc(-c2nc3ccccc3c(=O)[nH]2)c1 | 87.7
34 | Cc1ccc(Cc2n[nH]c(=O)[nH]2)cc1 | > 100
35 | C/C=C/C(C#N)(/C=C/c1ccccc1)OP1(=O)OC(c2ccccc2)C(C)N1C (stereo not given) | 44.5
36 | S=C(N1CCN(c2ccc(Cl)c(Cl)c2)CC1)N1CCN(c2ccc(Cl)c(Cl)c2)CC1 | 15.2
37 | CCOC(=O)c1c(SC(=O)c2ccc(C(C)(C)C)cc2)n(-c2ccccc2)c(=S)n(-c2ccccc2)c1=O | > 100
38 | CC1OC(OC2C(O[C@H]3CC[C@@H]4C(=CC[C@@H]5[C@@]4(C)C(=O)C[C@]4(C)[C@@H]([C@H](C)CC[C@@H](O)C(C)(C)O)CC[C@@]54C)C3(C)C)OC(CO)C(O)C2O)C(O)C(O)C1O (stereo not given in full) | > 100
39 | Cc1ccc(-c2n[nH]c(Cc3nc(-c4ccc(C)cc4)n[nH]3)n2)cc1 | > 100
40 | Cc1nnc2n1N=C(c1ccccc1)/C(=C/c1ccc(-c3ccc(Cl)cc3)o1)S2 | 53.3
41 | COC1(c2ccc(Cl)cc2)SC=C(C)n2c1noc2=O (stereo not given) | > 100
42 | N=C(N)c1ccc(/C=C/c2ccc(C(=N)N)cc2)cc1 | > 100
43 | NC1CC(=O)c2cscc21 (stereo not given) | > 100
44 | CC(=O)Oc1c(C)c2c(c3ncccc13)OC(C)C2 (stereo not given) | 30.8
45 | COc1c2c(cc3c1C(=O)c1c(O)cccc1C3=O)CC(O)CC2 (stereo not given) | > 100

tested on: SN12C renal; experiment: NCI anticancer screen, dose series, 48 h

Row | SMILES | TGI [µM]
46 | Cc1ccc(N=N/C(=N/NC(=O)c2cc(Cl)ccc2O)c2ccc(N(CCC#N)CCC#N)cc2C)cc1 | 85.6
47 | Cc1ccc2c(c1)[nH]c(=S)n2C=C(C(N)=O)C(N)=O | > 100
48 | O=C1C=Cc2c(Br)sc(Br)c21 | > 100
49 | CN(C)CCNc1ccc([N+](=O)[O-])c2sc3ccccc3c(=O)c12 | > 100
50 | CN1Cc2ccccc2S(=O)(=O)n2cccc2C1=O | > 100
51 | O=C(C1OC1c1ccc(Cl)cc1)C12CC3CC(CC(C3)C1)C2 (stereo not given) | 32.2
52 | NC1c2c(Br)sc(N3CCCC3)c2C(=O)C1O (stereo not given) | > 50
53 | COc1cccc(-c2nc3ccccc3c(=O)[nH]2)c1 | 82.2
54 | Cc1ccc(Cc2n[nH]c(=O)[nH]2)cc1 | > 100
55 | C/C=C/C(C#N)(/C=C/c1ccccc1)OP1(=O)OC(c2ccccc2)C(C)N1C (stereo not given) | 35.5
56 | CCOC(=O)c1c(SC(=O)c2ccc(C(C)(C)C)cc2)n(-c2ccccc2)c(=S)n(-c2ccccc2)c1=O | > 100
57 | CC1OC(OC2C(O[C@H]3CC[C@@H]4C(=CC[C@@H]5[C@@]4(C)C(=O)C[C@]4(C)[C@@H]([C@H](C)CC[C@@H](O)C(C)(C)O)CC[C@@]54C)C3(C)C)OC(CO)C(O)C2O)C(O)C(O)C1O (stereo not given in full) | > 100
58 | Cc1ccc(-c2n[nH]c(Cc3nc(-c4ccc(C)cc4)n[nH]3)n2)cc1 | > 100
59 | Cc1nnc2n1N=C(c1ccccc1)/C(=C/c1ccc(-c3ccc(Cl)cc3)o1)S2 | 35.7
60 | COC1(c2ccc(Cl)cc2)SC=C(C)n2c1noc2=O (stereo not given) | > 100
61 | N=C(N)c1ccc(/C=C/c2ccc(C(=N)N)cc2)cc1 | > 100
62 | NC1CC(=O)c2cscc21 (stereo not given) | > 100
63 | CC(=O)Oc1c(C)c2c(c3ncccc13)OC(C)C2 (stereo not given) | 30.1
64 | COc1c2c(cc3c1C(=O)c1c(O)cccc1C3=O)CC(O)CC2 (stereo not given) | > 100

tested on: NCI-H226 lung; experiment: NCI anticancer screen, dose series, 48 h

Row | SMILES | TGI [µM]
65 | Cc1ccc(N=N/C(=N/NC(=O)c2cc(Cl)ccc2O)c2ccc(N(CCC#N)CCC#N)cc2C)cc1 | 63.7
66 | Cc1ccc2c(c1)[nH]c(=S)n2C=C(C(N)=O)C(N)=O | > 100
67 | CN(C)CCNc1ccc([N+](=O)[O-])c2sc3ccccc3c(=O)c12 | 51.2
68 | O=C(C1OC1c1ccc(Cl)cc1)C12CC3CC(CC(C3)C1)C2 (stereo not given) | 38.5
69 | NC1c2c(Br)sc(N3CCCC3)c2C(=O)C1O (stereo not given) | > 50
70 | Cc1ccc(Cc2n[nH]c(=O)[nH]2)cc1 | > 100
71 | S=C(N1CCN(c2ccc(Cl)c(Cl)c2)CC1)N1CCN(c2ccc(Cl)c(Cl)c2)CC1 | 23.8
72 | CCOC(=O)c1c(SC(=O)c2ccc(C(C)(C)C)cc2)n(-c2ccccc2)c(=S)n(-c2ccccc2)c1=O | > 100
73 | CC1OC(OC2C(O[C@H]3CC[C@@H]4C(=CC[C@@H]5[C@@]4(C)C(=O)C[C@]4(C)[C@@H]([C@H](C)CC[C@@H](O)C(C)(C)O)CC[C@@]54C)C3(C)C)OC(CO)C(O)C2O)C(O)C(O)C1O (stereo not given in full) | > 100
74 | Cc1nnc2n1N=C(c1ccccc1)/C(=C/c1ccc(-c3ccc(Cl)cc3)o1)S2 | 31.1
75 | N=C(N)c1ccc(/C=C/c2ccc(C(=N)N)cc2)cc1 | > 100
76 | CC(=O)Oc1c(C)c2c(c3ncccc13)OC(C)C2 (stereo not given) | 32.8
77 | COc1c2c(cc3c1C(=O)c1c(O)cccc1C3=O)CC(O)CC2 (stereo not given) | > 100

tested on: HCT-15 colon; experiment: NCI anticancer screen, dose series, 48 h

Row | SMILES | TGI [µM]
78 | Cc1ccc(N=N/C(=N/NC(=O)c2cc(Cl)ccc2O)c2ccc(N(CCC#N)CCC#N)cc2C)cc1 | > 100
79 | Cc1ccc2c(c1)[nH]c(=S)n2C=C(C(N)=O)C(N)=O | > 100
80 | O=C1C=Cc2c(Br)sc(Br)c21 | 90.4
81 | CN(C)CCNc1ccc([N+](=O)[O-])c2sc3ccccc3c(=O)c12 | 23.6
82 | CN1Cc2ccccc2S(=O)(=O)n2cccc2C1=O | > 100
83 | O=C(C1OC1c1ccc(Cl)cc1)C12CC3CC(CC(C3)C1)C2 (stereo not given) | 82
84 | NC1c2c(Br)sc(N3CCCC3)c2C(=O)C1O (stereo not given) | > 50
85 | COc1cccc(-c2nc3ccccc3c(=O)[nH]2)c1 | 51.6
86 | Cc1ccc(Cc2n[nH]c(=O)[nH]2)cc1 | > 100
87 | S=C(N1CCN(c2ccc(Cl)c(Cl)c2)CC1)N1CCN(c2ccc(Cl)c(Cl)c2)CC1 | 28.8
88 | CCOC(=O)c1c(SC(=O)c2ccc(C(C)(C)C)cc2)n(-c2ccccc2)c(=S)n(-c2ccccc2)c1=O | > 100
89 | CC1OC(OC2C(O[C@H]3CC[C@@H]4C(=CC[C@@H]5[C@@]4(C)C(=O)C[C@]4(C)[C@@H]([C@H](C)CC[C@@H](O)C(C)(C)O)CC[C@@]54C)C3(C)C)OC(CO)C(O)C2O)C(O)C(O)C1O (stereo not given in full) | > 100
90 | Cc1ccc(-c2n[nH]c(Cc3nc(-c4ccc(C)cc4)n[nH]3)n2)cc1 | > 100
